Where two headings read alike, the source gives them in different places.

What all share (format): cell-based
One assay relates to K562 cell line. In words: CCK-8 anti-proliferative assay, K562. The following applies: Homo sapiens, 72 h, K562, culture for 3 days. How it is done: CCK-8 assay (cell counting kit-8 assay, Dojindo, Kumamoto, Japan) was performed. The K562 cell line was cultured in RPMI medium supplemented with 10% FBS and 1% ABAM at 37° C. in the presence of 5% CO2. Cells were treated with test compounds at concentrations of 0 μM, 1.25 μM, 2.5 μM, 5 μM, 10 μM, and 20 μM, respectively. After culture for 3 days, 10 μL of CCK-8 solution was treated and cultured for 4 hours. Subsequently, the absorbance was measured at 450 nm to obtain the IC50 value of each compound.
The experimental values for the K562 cell line are identical to biological Example 2.

The next assay relates to Phospho-eIF2α (Ser51). In words: Phospho-eIF2α (Ser51) Sandwich ELISA in K562 cells. As to conditions: Homo sapiens, K562, 6 h, serum-free RPMI, 10 μM compound, control = 1, read-out: eIF2α phosphorylation, absorbance standardized to control (DMSO-treated) set to 1, at 10 μM. Here is the method:
Pathscan Phospho-eIF2α (Ser51) Sandwich ELISA Kit #7286 from Cell signaling was used. The K562 cell line was cultured in serum-free RPMI medium at 37° C. in the presence of 5% CO2. Cells were treated with test compounds at a concentration of 10 μM. Six hours after compound treatment, the cells were lysed with a lysis buffer included in the kit to obtain 50 μg of protein by quantification. Afterwards, ELISA assay was performed according to the manufacturer's protocol to obtain absorbance. The absorbance for each obtained compound was standardized to a value of which the control (DMSO-treated) is set to 1.

The subject of assay [1] is PBMC (peripheral blood monocyte cells isolated from normal donors). In words: CCK-8 assay, PBMC (normal cells). The following applies: for IC50: 72 h, PBMC normal cells, culture for 3 days, CCK-8, tested 0-20 μM; for SI (selectivity index): K562 cells compared to PBMC. Here is the method:
PBMC (peripheral blood monocyte cells isolated from normal donors) cell lines were dispensed in RPMI medium supplemented with 10% FBS and 1% ABAM at 37° C. in the presence of 5% CO2, and then the test compounds were treated at concentrations of 0 μM, 1.25 μM, 2.5 μM, 5 μM, 10 μM, and 20 μM, respectively. After culture for 3 days, 10 μL of CCK-8 solution was treated and cultured for 4 hours. Subsequently, the absorbance at 450 nm was measured to obtain the IC50 value of each compound.

The mark [2] stands for this setting: CCK-8, Table 3 (identical to Example 2), tested 0-20 μM, read-out: IC50 K562.

As for `N#Cc1ccc(O[C@H]2CC[C@H](Nc3c(Nc4cccc(Cl)c4)c(=O)c3=O)CC2)cc1` [Compound 19, 4-(((1,4-trans)-4-((2-((3-Chlorophenyl)amino)-3,4-dioxocyclobut-1-en-1-yl)amino)cyclohexyl)oxy)benzonitrile], the IC50 in the assay with K562 cell line (CCK-8, Table 2, read-out: IC50) is more than 20 µM. Moreover, the activity at 10 µM with Phospho-eIF2α (Ser51) was 111%.

Turning to `O=c1c(Nc2cccc(Cl)c2)c(N[C@H]2CC[C@H](Oc3ccc([N+](=O)[O-])cc3)CC2)c1=O` [Compound 20, 3-((3-Chlorophenyl)amino)-4-(((1,4-trans)-4-(4-nitrophenoxy)cyclohexyl)amino)cyclobut-3-ene-1,2-dione], the IC50 was found to be 20 µM in assay [1]; 16.1 µM in the assay on K562 cell line (CCK-8, Table 2, read-out: IC50); 16.1 µM in the assay with K562 cell line (setting [2]). Further, the “SI (selectivity index)” value in assay [1] was 1.40. The activity at 10 µM with Phospho-eIF2α (Ser51) worked out at 190%.

Take `O=c1c(Nc2cccc(C(F)(F)F)c2)c(N[C@H]2CC[C@H](Oc3ccc(C(F)(F)F)cc3)CC2)c1=O` [Compound 23, 3-(((1,4-trans)-4-(4-(Trifluoromethyl)phenoxy)cyclohexyl)amino)-4-((3-(trifluoromethyl)phenyl)amino)cyclobut-3-ene-1,2-dione]: the IC50 in assay [1] turned out to be 10.8 µM; with K562 cell line (CCK-8, Table 2, read-out: IC50), 3.96 µM; in the assay on K562 cell line (setting [2]) it was 3.96 µM. Also, in assay [1], the “SI (selectivity index)” value is listed as 2.77. Also, in the assay on Phospho-eIF2α (Ser51), the activity at 10 µM stood at 201%.

In the case of `N#Cc1ccc(O[C@H]2CC[C@H](Nc3c(Nc4cccc(C(F)(F)F)c4)c(=O)c3=O)CC2)cc1` [Compound 24, 4-(((1,4-trans)-4-((3,4-Dioxo-2-((3-(trifluoromethyl)phenyl)amino)cyclobut-1-en-1-yl)amino)cyclohexyl)oxy)benzonitrile], the IC50 in assay [1] worked out at 22.5 µM; with K562 cell line (CCK-8, Table 2, read-out: IC50), 5.94 µM; in the assay on K562 cell line (setting [2]), 5.94 µM. The “SI (selectivity index)” value in assay [1] is listed as 3.82. Besides, the activity at 10 µM in the assay with Phospho-eIF2α (Ser51) worked out at 195%.

Turning to `O=c1c(Nc2cccc(C(F)(F)F)c2)c(N[C@H]2CC[C@H](Oc3ccc([N+](=O)[O-])cc3)CC2)c1=O` [Compound 25, 3-(((1,4-trans)-4-(4-Nitrophenoxy)cyclohexyl)amino)-4-((3-(trifluoromethyl)phenyl)amino)cyclobut-3-ene-1,2-dione], the IC50 in assay [1] stood at 16 µM; with K562 cell line (CCK-8, Table 2, read-out: IC50), 12.2 µM; with K562 cell line (setting [2]), 12.2 µM. In addition, in assay [1], the “SI (selectivity index)” value was 1.27. In addition, the activity at 10 µM in the assay on Phospho-eIF2α (Ser51) turned out to be 140%.

With `CS(=O)(=O)c1ccc(O[C@H]2CC[C@H](Nc3c(Nc4cccc(C(F)(F)F)c4)c(=O)c3=O)CC2)cc1` [Compound 26, 3-(((1,4-trans)-4-(4-(Methylsulfonyl)phenoxy)cyclohexyl)amino)-4-((3-(trifluoromethyl)phenyl)amino)cyclobut-3-ene-1,2-dione], the IC50 in the assay with K562 cell line (CCK-8, Table 2, read-out: IC50) is more than 20 µM. Moreover, the activity at 10 µM in the assay with Phospho-eIF2α (Ser51) was 133%.

For the compound `CC(C)(C)c1cccc(Nc2c(N[C@H]3CC[C@H](Oc4ccc(C(F)(F)F)cc4)CC3)c(=O)c2=O)c1` [Compound 28, 3-((3-(tert-Butyl)phenyl)amino)-4-(((1,4-trans)-4-(4-(trifluoromethyl)phenoxy)cyclohexyl)amino)cyclobut-3-ene-1,2-dione], the IC50 in assay [1] turned out to be 19.4 µM; in the assay with K562 cell line (CCK-8, Table 2, read-out: IC50) it was 6.8 µM; with K562 cell line (setting [2]), 6.8 µM. The “SI (selectivity index)” value in assay [1] amounted to 2.86.

With `CC(C)(C)c1cccc(Nc2c(N[C@H]3CC[C@H](Oc4ccc(C#N)cc4)CC3)c(=O)c2=O)c1` [Compound 29, 4-(((1,4-trans)-4-((2-((3-(tert-Butyl)phenyl)amino)-3,4-dioxocyclobut-1-en-1-yl)amino)cyclohexyl)oxy)benzonitrile], the IC50 turned out to be 17 µM in assay [1]; 4.09 µM in the assay with K562 cell line (CCK-8, Table 2, read-out: IC50); 4.09 µM in the assay with K562 cell line (setting [2]). In addition, in assay [1], the “SI (selectivity index)” value is recorded as 3.82. Also, the activity at 10 µM in the assay on Phospho-eIF2α (Ser51) came to 176%.

For `CC(C)(C)c1cccc(Nc2c(N[C@H]3CC[C@H](Oc4ccc([N+](=O)[O-])cc4)CC3)c(=O)c2=O)c1` [Compound 30, 3-((3-(tert-Butyl)phenyl)amino)-4-(((1,4-trans)-4-(4-nitrophenoxy)cyclohexyl)amino)cyclobut-3-ene-1,2-dione], the IC50 in assay [1] stood at 12.8 µM; in the assay on K562 cell line (CCK-8, Table 2, read-out: IC50), 5.09 µM; in the assay on K562 cell line (setting [2]) it was 5.09 µM. Further, the “SI (selectivity index)” value in assay [1] was determined as 2.61. Further, in the assay on Phospho-eIF2α (Ser51), the activity at 10 µM is 112%.

Take `CC(C)(C)c1cccc(Nc2c(N[C@H]3CC[C@H](Oc4ccc(S(C)(=O)=O)cc4)CC3)c(=O)c2=O)c1` [Compound 31, 3-((3-(tert-Butyl)phenyl)amino)-4-(((1,4-trans)-4-(4-(methylsulfonyl)phenoxy)cyclohexyl)amino)cyclobut-3-ene-1,2-dione]: the IC50 in assay [1] was found to be 35.1 µM; in the assay with K562 cell line (CCK-8, Table 2, read-out: IC50) it was 5.69 µM; in the assay on K562 cell line (setting [2]), 5.69 µM. The “SI (selectivity index)” value in assay [1] is 6.10. The activity at 10 µM in the assay with Phospho-eIF2α (Ser51) came to 150%.

In the case of `COc1cccc(Nc2c(N[C@H]3CC[C@H](Oc4ccc([N+](=O)[O-])cc4)CC3)c(=O)c2=O)c1` [Compound 35, 3-((3-Methoxyphenyl)amino)-4-(((1,4-trans)-4-(4-nitrophenoxy)cyclohexyl)amino)cyclobut-3-ene-1,2-dione], the IC50 with K562 cell line (CCK-8, Table 2, read-out: IC50) was more than 20 µM. Besides, the activity at 10 µM in the assay with Phospho-eIF2α (Ser51) was determined as 105%.

On to `CS(=O)(=O)c1ccc(O[C@H]2CC[C@H](Nc3c(Nc4ccc(C(F)(F)F)cc4)c(=O)c3=O)CC2)cc1` [Compound 49, 3-(((1,4-trans)-4-(4-(Methylsulfonyl)phenoxy)cyclohexyl)amino)-4-((4-(trifluoromethyl)phenyl)amino)cyclobut-3-ene-1,2-dione], for which the IC50 in the assay on K562 cell line (CCK-8, Table 2, read-out: IC50) was more than 20 µM. In addition, the activity at 10 µM in the assay with Phospho-eIF2α (Ser51) is 102%.

With `O=c1c(Nc2ccccc2C(F)(F)F)c(N[C@H]2CC[C@H](Oc3ccc(C(F)(F)F)cc3)CC2)c1=O` [Compound 70, 3-(((1,4-trans)-4-(4-(Trifluoromethyl)phenoxy)cyclohexyl)amino)-4-((2-(trifluoromethyl)phenyl)amino)cyclobut-3-ene-1,2-dione], the IC50 with K562 cell line (CCK-8, Table 2, read-out: IC50) was more than 20 µM. For the same compound, the activity at 10 µM in the assay on Phospho-eIF2α (Ser51) amounted to 194%.

`N#Cc1ccc(O[C@H]2CC[C@H](Nc3c(Nc4ccccc4C(F)(F)F)c(=O)c3=O)CC2)cc1` [Compound 71, 4-(((1,4-trans)-4-((3,4-Dioxo-2-((2-(trifluoromethyl)phenyl)amino)cyclobut-1-en-1-yl)amino)cyclohexyl)oxy)benzonitrile]: the IC50 in the assay on K562 cell line (CCK-8, Table 2, read-out: IC50) was more than 20 µM. Also, the activity at 10 µM in the assay with Phospho-eIF2α (Ser51) turned out to be 180%.

`O=c1c(Nc2ccccc2C(F)(F)F)c(N[C@H]2CC[C@H](Oc3ccc([N+](=O)[O-])cc3)CC2)c1=O` [Compound 72, 3-(((1,4-trans)-4-(4-Nitrophenoxy)cyclohexyl)amino)-4-((2-(trifluoromethyl)phenyl)amino)cyclobut-3-ene-1,2-dione]: in the assay with K562 cell line (CCK-8, Table 2, read-out: IC50), the IC50 was more than 20 µM. In the assay with Phospho-eIF2α (Ser51), the activity at 10 µM is 149%.

Regarding `N#Cc1cc(Nc2c(N[C@H]3CC[C@H](Oc4ccc(C(F)(F)F)cc4)CC3)c(=O)c2=O)cc(C(F)(F)F)c1` [Compound 83, 3-((3,4-Dioxo-2-(((1,4-trans)-4-(4-(trifluoromethyl)phenoxy)cyclohexyl)amino)cyclobut-1-en-1-yl)amino)-5-(trifluoromethyl)benzonitrile], the IC50 in assay [1] was determined as 19.3 µM; with K562 cell line (CCK-8, Table 2, read-out: IC50), 4 µM; in the assay with K562 cell line (setting [2]) it was 4 µM. In addition, the “SI (selectivity index)” value in assay [1] amounted to 4.46. The activity at 10 µM in the assay on Phospho-eIF2α (Ser51) came to 184%.

As to `N#Cc1ccc(O[C@H]2CC[C@H](Nc3c(Nc4cc(C#N)cc(C(F)(F)F)c4)c(=O)c3=O)CC2)cc1` [Compound 84, 3-((2-(((1,4-trans)-4-(4-Cyanophenoxy)cyclohexyl)amino)-3,4-dioxocyclobut-1-en-1-yl)amino)-5-(trifluoromethyl)benzonitrile], the concentration for half-maximal inhibition (IC50) in assay [1] was determined as 29.4 µM; in the assay on K562 cell line (CCK-8, Table 2, read-out: IC50) it was 10.1 µM; with K562 cell line (setting [2]) it was 10.1 µM. Moreover, in assay [1], the “SI (selectivity index)” value is reported as 2.26. In the assay with Phospho-eIF2α (Ser51), the activity at 10 µM was determined as 143%.

With `N#Cc1cc(Nc2c(N[C@H]3CC[C@H](Oc4ccc([N+](=O)[O-])cc4)CC3)c(=O)c2=O)cc(C(F)(F)F)c1` [Compound 85, 3-((2-(((1,4-trans)-4-(4-Nitrophenoxy)cyclohexyl)amino)-3,4-dioxocyclobut-1-en-1-yl)amino)-5-(trifluoromethyl)benzonitrile], in the assay on K562 cell line (CCK-8, Table 2, read-out: IC50), the 50% inhibitory concentration (IC50) is more than 20 µM. In addition, the activity at 10 µM in the assay on Phospho-eIF2α (Ser51) came to 116%.

(Values after patent publication US20240261249A1, “NOVEL SQUARAMIDE DERIVATIVE AND USE THEREOF” (PUSAN NATIONAL UNIVERSITY INDUSTRY-UNIVERSITY COOPERATION …, priority 2021, published 2024).)
